Assay results as given in ChEMBL document CHEMBL5584301, “Radioactive ADME Demonstrates ARV-110's High Druggability Despite Low Oral Bioavailability” (J Med Chem, 2024).
Calls of active or inactive are those of the source. The calls are words filed in the database; no cut-off is given here.

What was measured:
[1] = Cmax in BALB/c nude mouse at 0.5 mg/kg, po measured at 48 hrs; assay type: ADME, organism-based; conditions: in vivo
[2] = Drug distribution in BALB/c mouse digestive tract at 0.5 mg/kg, po by QWBA analysis; assay type: ADME, organism-based; conditions: in vivo
[3] = Drug recovery in male Sprague-Dawley rat feces at 45 mg/kg, po measured upto 48 hrs by UHPLC analysis; assay type: ADME, organism-based; conditions: faeces, read-out: Drug recovery
[4] = Drug recovery in male Sprague-Dawley rat urine at 45 mg/kg, po measured upto 96 hrs by UHPLC analysis; assay type: ADME, organism-based; conditions: read-out: Drug recovery
[5] = Drug recovery in Long-Evans rat eye at 45 mg/kg, po measured for 72 hrs by UHPLC analysis; assay type: ADME, organism-based; conditions: in vivo
[6] = Cmax in C57BL/6J mouse eye at 0.5 mg/kg, po measured at 168 hrs by QWBA analysis; assay type: ADME, organism-based; conditions: in vivo
[7] = Drug distribution in BALB/c mouse kidney at 0.5 mg/kg, po by QWBA analysis; assay type: ADME, organism-based; conditions: in vivo
[8] = Drug distribution in BALB/c mouse harderian gland at 0.5 mg/kg, po by QWBA analysis; assay type: ADME, organism-based; conditions: in vivo
[9] = AUC (0 to t ) in C57BL/6J mouse uveal tract at 0.5 mg/kg, po measured at 168 hrs by QWBA analysis; assay type: ADME, organism-based; conditions: in vivo
[10] = Cmax in BALB/c nude mouse at 0.5 mg/kg, po measured at 6 hrs; assay type: ADME, organism-based; conditions: in vivo
[11] = Ratio of drug exposure in pigmented skin to plasma of C57BL/6J mouse at 0.5 mg/kg, po; assay type: ADME, organism-based; conditions: pigmented skin and plasma
[12] = Drug recovery in female Sprague-Dawley rat feces at 45 mg/kg, po measured upto 48 hrs by UHPLC analysis; assay type: ADME, organism-based; conditions: faeces, read-out: Drug recovery
[13] = Drug metabolism in Long-Evans rat at 45 mg/kg, po by UHPLC-HR-MS analysis; assay type: ADME, organism-based; conditions: in vivo
[14] = Ratio of drug exposure in tumor to plasma of BALB/c mouse at 0.5 mg/kg, po; assay type: ADME, organism-based; conditions: tumor and plasma
[15] = Drug recovery in female Sprague-Dawley rat urine at 45 mg/kg, po measured upto 96 hrs by UHPLC analysis; assay type: ADME, organism-based; conditions: read-out: Drug recovery
[16] = Cmax in C57BL/6J mouse harderian gland at 0.5 mg/kg, po measured at 48 hrs by QWBA analysis; assay type: ADME, organism-based; conditions: in vivo
[17] = Drug distribution in BALB/c mouse liver at 0.5 mg/kg, po by QWBA analysis; assay type: ADME, organism-based; conditions: in vivo
[18] = Drug recovery in male Sprague-Dawley rat bile duct at 45 mg/kg, po measured upto 72 hrs by UHPLC analysis; assay type: ADME, organism-based; conditions: read-out: Drug recovery
[19] = Cmax in C57BL/6J mouse uveal tract at 0.5 mg/kg, po measured at 168 hrs by QWBA analysis; assay type: ADME, organism-based; conditions: in vivo
[20] = Drug recovery in female Sprague-Dawley rat bile duct at 45 mg/kg, po measured upto 72 hrs by UHPLC analysis; assay type: ADME, organism-based; conditions: read-out: Drug recovery
[21] = Stability in rat plasma assessed as drug degradation measured after 2 hrs by LC-MS/MS analysis; assay type: ADME, cell-free
[22] = Half life in Sprague-Dawley rat at 45 mg/kg, po by LSC analysis; assay type: ADME, organism-based; conditions: in vivo
[23] = Stability in phosphate buffer at 1 uM; assay type: physicochemical
[24] = Drug recovery in Sprague-Dawley rat bile duct at 45 mg/kg, po measured over 72 hrs by UHPLC analysis; assay type: ADME, organism-based; conditions: read-out: Drug recovery
[25] = Stability in rat plasma measured after 2 hrs by LC-MS/MS analysis; assay type: ADME, cell-free
Melanin [26] = assay: Binding affinity to Melanin (unknown origin) assessed as binding ratio at 1 microg/ml measured for 2 hrs; conditions: dose 1.0 µg/ml
Melanin [27] = assay: Binding affinity to Melanin (unknown origin) assessed as binding ratio at 0.1 microg/ml measured for 2 hrs; conditions: dose 0.1 µg/ml
[28] = Tmax in Sprague-Dawley rat at 45 mg/kg, po by LSC analysis; assay type: ADME, organism-based; conditions: in vivo
[29] = Cmax in Sprague-Dawley rat at 45 mg/kg, po by LSC analysis; assay type: ADME, organism-based; conditions: in vivo
[30] = Oral bioavailability in Sprague-Dawley rat at 45 mg/kg by LSC analysis; assay type: ADME, organism-based; conditions: in vivo
[31] = AUC (0 to t) in Sprague-Dawley rat at 45 mg/kg, po by LSC analysis; assay type: ADME, organism-based; conditions: in vivo
[32] = Tmax in Sprague-Dawley rat at 22.5 mg/kg, po with free access to food and water before administration by LSC analysis; assay type: ADME, organism-based; conditions: in vivo
[33] = Oral bioavailability in Sprague-Dawley rat at 22.5 mg/kg by LSC analysis; assay type: ADME, organism-based; conditions: in vivo
[34] = Cmax in Sprague-Dawley rat at 22.5 mg/kg, po by LSC analysis; assay type: ADME, organism-based; conditions: in vivo
[35] = Tmax in Sprague-Dawley rat at 22.5 mg/kg, po by LSC analysis; assay type: ADME, organism-based; conditions: in vivo
[36] = AUC (0 to t) in Sprague-Dawley rat at 22.5 mg/kg, po with free access to food and water before administration by LSC analysis; assay type: ADME, organism-based; conditions: in vivo
[37] = AUC (0 to infinity) in Sprague-Dawley rat at 22.5 mg/kg, po by LSC analysis; assay type: ADME, organism-based; conditions: in vivo
DU-145 = assay: Antitumor activity against human DU-145 cells xenografted in BALB/c nude mouse assessed as reduction in tumor size at 0.5 mg/kg measured daily for 14 days; assay type: functional, organism-based; conditions: time 14.0 day
[38] = Drug recovery in Sprague-Dawley rat feces at 45 mg/kg, po measured over 168 hrs by UHPLC analysis; assay type: ADME, organism-based; conditions: faeces, read-out: Drug recovery
[39] = Half life in Sprague-Dawley rat at 22.5 mg/kg, po by LSC analysis; assay type: ADME, organism-based; conditions: in vivo
[40] = AUC (0 to infinity) in Sprague-Dawley rat at 22.5 mg/kg, po with free access to food and water before administration by LSC analysis; assay type: ADME, organism-based; conditions: in vivo
[41] = Cmax in Sprague-Dawley rat at 22.5 mg/kg, po with free access to food and water before administration by LSC analysis; assay type: ADME, organism-based; conditions: in vivo
[42] = Stability in rat plasma assessed as drug hydrolysis measured after 2 hrs by LC-MS/MS analysis; assay type: ADME, cell-free
[43] = AUC (0 to t) in Sprague-Dawley rat at 22.5 mg/kg, po by LSC analysis; assay type: ADME, organism-based; conditions: in vivo
[44] = Volume of distribution at steady state in Sprague-Dawley rat at 22.5 mg/kg, iv by LSC analysis; assay type: ADME, organism-based; conditions: in vivo
Melanin [45] = assay: Binding affinity to Melanin (unknown origin) assessed as binding ratio at 10 microg/ml measured for 2 hrs; conditions: dose 10.0 µg/ml
[46] = AUC (0 to infinity) in Sprague-Dawley rat at 45 mg/kg, po by LSC analysis; assay type: ADME, organism-based; conditions: in vivo
[47] = Oral bioavailability in Sprague-Dawley rat at 22.5 mg/kg with free access to food and water before administration by LSC analysis; assay type: ADME, organism-based; conditions: in vivo
[48] = Half life in Sprague-Dawley rat at 22.5 mg/kg, po with free access to food and water before administration by LSC analysis; assay type: ADME, organism-based; conditions: in vivo
[49] = Drug recovery in Sprague-Dawley rat urine at 45 mg/kg, po measured over 168 hrs by UHPLC analysis; assay type: ADME, organism-based; conditions: read-out: Drug recovery

N#Cc1ccc(O[C@H]2CC[C@H](NC(=O)c3ccc(N4CCC(CN5CCN(c6cc7c(cc6F)[14C](=O)N(C6CCC(=O)NC6=O)[14C]7=O)CC5)CC4)nn3)CC2)cc1Cl (stereo not given in full)
Cmax [1]: 944 ngequiv/g | Drug uptake [2]: Active | dose excreted at 48 h [3]: 92% | dose excreted at 96 h [4]: 2.51% | Drug recovery [5]: 55.17% | Cmax [6]: 3185 ngequiv/g | Drug uptake [7]: Active | Drug uptake [8]: Active | AUCt [9]: 2717032 ng·h/g | Cmax [10]: 3165 ngequiv/g | Kp [11]: 1.52 | dose excreted at 48 h [12]: 88% | Drug metabolism [13]: Metabolite_Detected | Kp [14]: 3.99 | dose excreted at 96 h [15]: 4.25% | Cmax [16]: 2950 ngequiv/g | Drug uptake [17]: Active | dose excreted at 72 h [18]: 4.55% | Cmax [19]: 9621 ngequiv/g | dose excreted at 72 h [20]: 4.49%

N#Cc1ccc(O[C@H]2CC[C@H](NC(=O)c3ccc(N4CCC(CN5CCN(c6cc7c(cc6F)C(=O)N(C6CCC(=O)NC6=O)C7=O)CC5)CC4)nn3)CC2)cc1Cl (stereo not given in full) [BAVDEGALUTAMIDE]
Stability [21]: Stable | t1/2 [22]: 15.9 h | Stability [23]: Stable | dose excreted at 72 h [24]: 4.54% | Stability [25]: Unstable | inhibition (Melanin [26]): 90.1% | inhibition (Melanin [27]): 91% | Tmax [28]: 5.5 h | Cmax [29]: 490 ng/mL | F [30]: 5.62% | AUCt [31]: 12345 ng·h/mL | Tmax [32]: 8.5 h | F [33]: 10.75% | Cmax [34]: 448 ng/mL | Tmax [35]: 7 h | AUCt [36]: 23022 ng·h/mL | AUC [37]: 11881 ng·h/mL | Activity (DU-145): Active | dose excreted at 168 h [38]: 90% | t1/2 [39]: 15.4 h | AUC [40]: 23274 ng·h/mL | Cmax [41]: 842 ng/mL | Stability [42]: Stable | AUCt [43]: 11740 ng·h/mL | Vdss [44]: 2.04 L/kg | inhibition (Melanin [45]): 82.2% | AUC [46]: 12515 ng·h/mL | F [47]: 20.97% | t1/2 [48]: 14.8 h | dose excreted at 168 h [49]: 3.38%
